According to patent US20160002267A1, “BENZYL-SUBSTITUTED PYRAZOLOPYRIDINES AND USE THEREOF” (BAYER PHARMA AKTIENGESELLSCHAFT, priority 2013, published 2016):

Assays:
guanylate cyclase = target: T1, guanylate cyclase (Rattus norvegicus, UniProt P19686+P20595); experiment: Effect on a recombinant guanylate cyclase reporter cell line; format: cell-based
T1 construct: expressed in transfected cells; host or cells: recombinant reporter cell line
T1 sequence (P20595 1-619): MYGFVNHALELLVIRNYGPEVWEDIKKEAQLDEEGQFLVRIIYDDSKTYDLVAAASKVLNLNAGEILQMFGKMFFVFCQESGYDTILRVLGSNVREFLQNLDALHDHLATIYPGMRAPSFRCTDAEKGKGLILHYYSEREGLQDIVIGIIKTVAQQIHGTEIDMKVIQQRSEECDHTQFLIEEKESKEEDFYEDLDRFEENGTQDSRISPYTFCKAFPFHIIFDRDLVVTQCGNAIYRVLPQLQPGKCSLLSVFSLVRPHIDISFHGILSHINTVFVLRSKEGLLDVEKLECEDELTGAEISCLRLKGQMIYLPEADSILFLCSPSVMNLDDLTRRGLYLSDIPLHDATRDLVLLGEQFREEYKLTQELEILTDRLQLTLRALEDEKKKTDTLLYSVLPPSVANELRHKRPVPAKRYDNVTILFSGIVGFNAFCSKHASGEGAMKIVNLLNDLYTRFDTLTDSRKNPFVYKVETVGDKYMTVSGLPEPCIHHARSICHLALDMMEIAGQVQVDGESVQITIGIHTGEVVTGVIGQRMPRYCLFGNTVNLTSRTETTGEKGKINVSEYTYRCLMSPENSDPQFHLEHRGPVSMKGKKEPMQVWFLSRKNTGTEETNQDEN
T1 sequence (P19686 1-690): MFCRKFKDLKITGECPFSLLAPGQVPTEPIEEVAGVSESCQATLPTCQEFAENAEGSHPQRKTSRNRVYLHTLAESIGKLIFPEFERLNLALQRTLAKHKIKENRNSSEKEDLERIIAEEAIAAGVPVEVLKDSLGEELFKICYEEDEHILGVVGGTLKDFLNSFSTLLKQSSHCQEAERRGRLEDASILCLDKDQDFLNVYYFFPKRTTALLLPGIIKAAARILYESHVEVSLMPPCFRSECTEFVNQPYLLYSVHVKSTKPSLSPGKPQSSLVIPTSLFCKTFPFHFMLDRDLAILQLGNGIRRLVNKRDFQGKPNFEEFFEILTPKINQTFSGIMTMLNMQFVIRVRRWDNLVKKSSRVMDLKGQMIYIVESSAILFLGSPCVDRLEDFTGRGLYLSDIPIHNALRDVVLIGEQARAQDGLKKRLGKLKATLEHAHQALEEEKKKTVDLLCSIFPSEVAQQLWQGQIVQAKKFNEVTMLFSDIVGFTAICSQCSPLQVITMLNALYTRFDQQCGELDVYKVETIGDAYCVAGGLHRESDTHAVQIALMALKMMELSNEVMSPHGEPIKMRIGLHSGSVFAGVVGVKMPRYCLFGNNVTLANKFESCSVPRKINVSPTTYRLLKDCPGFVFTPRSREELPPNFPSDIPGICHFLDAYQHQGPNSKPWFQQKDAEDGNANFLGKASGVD
Experimental: The cellular activity of the compounds according to the invention is determined using a recombinant guanylate cyclase reporter cell line, as described in F. Wunder et al., Anal. Biochem. 339, 104-112 (2005).

[1] = Determination of pharmacokinetic parameters following intravenous and oral administration; format: in vivo, rat; conditions: rats, intravenous administration of 0.3 mg/kg and peroral administration of 1 mg/kg
Experimental: The pharmacokinetic parameters of the compounds of the formula (I) according to the invention are determined in male CD-1 mice, male Wistar rats and female beagles. Intravenous administration is via a formulation of species-specific plasma/DMSO in the case of mice and rats and via a water/PEG400/ethanol formulation in the case of dogs. For all species, oral administration of the dissolved substance via gavage is carried out based on a water/PEG400/ethanol formulation. The removal of blood from rats is simplified by inserting a silicone catheter into the right Vena jugularis externa prior to substance administration. The surgical intervention takes place at least one day prior to the experiment with isofluran anesthesia and administration of an analgetic (atropine/rimadyl (3/1) 0.1 ml s.c.). The removal of blood (generally more than 10 times) takes place in a time window which contains terminal times of at least 24 to a maximum of 72 hours after administration of the substance. The blood is removed into heparinized tubes. The blood plasma is then obtained by centrifugation; if required, it can be stored at −20° C. until further processing.
An internal standard (this can also be a chemically unrelated substance) is added to the samples of the compounds of the formula (I) according to the invention, calibration samples and qualifiers, and the protein is precipitated using excess acetonitrile. After addition of a buffer solution, which is adapted to the LC conditions, and subsequent vortexing, the mixture is centrifuged at 1000 g. The supernatant is examined by LC-MS/MS using C18-reversed-phase columns and variable mobile phase mixtures. The substances are quantified by peak heights or areas using extracted ion chromatograms of specific selected ion monitoring experiments.
The plasma concentration/time plots determined are used to calculate the pharmacokinetic parameters such as AUC (Area Under the Curve), Cmax, t1/2 (terminal half life), F (bioavailability), MRT (mean residence time) and CL (clearance), using a validated pharmacokinetic calculation program.
Since the substance quantification is performed in plasma, it is necessary to determine the blood/plasma distribution of the substance in order to be able to adjust the pharmacokinetic parameters correspondingly. For this purpose, a defined amount of substance is incubated in heparinized whole blood of the species in question in a rocking roller mixer for 20 min. After centrifugation at 1000 g, the plasma concentration is measured (by means of LC-MS/MS; see above) and determined by calculating the quotient of the Cblood/Cplasma values.

- MEC (minimum effective concentration) (guanylate cyclase): 0.1 µM
- MRT ([1]; male, Wistar, rat, plasma): 6.4 h
- half-life ([1]; male, Wistar, rat, plasma): 468 min
- AUCnorm [1]: 0.83 kg·h/L
- CLblood [1]: 1.42 L/h/kg
- F [1]: 39.0%
SMILES: CC1(C(F)(F)F)C(=O)Nc2nc(-c3nn(Cc4ccccc4F)c4ncc(F)cc34)nc(NCCC(F)(F)F)c21 (single isomer, unassigned) [Example 1-1, 2-[5-Fluoro-1-(2-fluorobenzyl)-1H-pyrazolo[3,4-b]pyridin-3-yl]-5-methyl-5-(trifluoromethyl)-4-[(3,3,3-trifluoropropyl)amino]-5,7-dihydro-6H-pyrrolo[2,3-d]pyrimidin-6-one]
